Common to all, as to experiment: Antifungal activity test (PDA plate, hypha extension inhibition)
Holding throughout (assay type): cell-based

One test concerns Microdochium nivale. Particulars: 3.2 ppm in PDA culture medium. The procedure:
(§1) (Antifungal Activity Test against Various Pathogenic Fungi) For each of the compounds I-1 to 27 of the present invention and the comparative compounds (a) to (d), (m-1) and (m-3), 20 mg was weighed and dissolved in 2 ml of dimethylsulfoxide, and a double dilution row in 10 steps was prepared by further using dimethylsulfoxide. A 0.6 ml portion of these solutions was each added to 60 ml of a PDA culture medium (potato-dextrose-agar culture medium) at about 60° C., they were well mixed in a 100 ml Erlenmeyer flask, the solution was poured into a schale and was solidified, the plate culture media containing the compounds according to the present invention with final concentrations of 100, 50.0, 25.0, 12.5, 6.3, 3.2, 1.6, 0.8, 0.4 and 0.2 mg/l were prepared. On the other hand, the specimen bacteria cultured on the plate culture media beforehand was punched by a 4 mm diameter cork borer, and was inoculated on the plate culture media containing the aforementioned chemicals. After the inoculation, the bacteria were cultured at the optimum growth temperature of each bacterium for 1 to 7 days (for this optimum growth temperature, LIST OF CULTURES 1996 Microorganisms 10th edition published by Fermentation Research Institute (Foundation) can be referred to.), and the growth of the bacteria was measured by the diameter of a colony. […]

For the next test, the system named is Rhynchosporium secalis. The following applies: 100 ppm in PDA culture medium. The procedure:
as §1

In the next test the test system is Pyrenophora graminea. The following applies: 12.5 ppm in PDA culture medium. As to the method: as §1

Molecules are shown by their SMILES.

Turning to `CC(Cc1ccc(C(F)(F)F)c(F)c1F)CN(C)Cc1ccc(Cl)nc1` (stereo not drawn) [Compound I-10], the “Growth Inhibition M.n (3.2)” value with Microdochium nivale was 4 (Hypha extension inhibition rate of from 70% to less than 90%). Besides, the “Growth Inhibition R.s (100)” value in the test on Rhynchosporium secalis was 4 (Hypha extension inhibition rate of from 70% to less than 90%). For the same compound, the “Growth Inhibition P.g (12.5)” value in the test on Pyrenophora graminea is reported as 4 (Hypha extension inhibition rate of from 70% to less than 90%).

On to `CC(Cc1ccc2c(c1)OC(F)(F)O2)CN(C)Cc1ccc(Cl)nc1` (stereo not drawn) [Compound I-24], for which, in the test with Microdochium nivale, the “Growth Inhibition M.n (3.2)” value is on record as 4 (Hypha extension inhibition rate of from 70% to less than 90%). Further, the “Growth Inhibition R.s (100)” value in the test with Rhynchosporium secalis is recorded as 5 (Hypha extension inhibition rate of 90% or more). For the same compound, in the test on Pyrenophora graminea, the “Growth Inhibition P.g (12.5)” value is recorded as 5 (Hypha extension inhibition rate of 90% or more).

For the origin of these results see US20040152903A1, “6-chloro-3-pyridylmethylpropylamine derivatives, preparation process thereof and bactericides” (priority 2004, published 2004).
